According to patent US7157582B2, “Selective iGluR5 receptor antagonists” (Eli Lilly and Company, priority 1999, dated 2007):

Assays:
[1] = tested on: dural protein extravasation; assay: Animal model of dural protein extravasation (guinea pig); format: in vivo; conditions: Gpig (guinea pig), i.v.
Procedure: (§1) The following animal model was employed to determine the ability of each of the panel of compounds to inhibit protein extravasation, an exemplary functional assay of the neuronal mechanism of migraine.
Harlan Sprague-Dawley rats (225–325 g) or guinea pigs from Charles River Laboratories (225–325 g) were anesthetized with sodium pentobarbital intraperitoneally (65 mg/kg or 45 mg/kg respectively) and placed in a stereotaxic frame (David Kopf Instruments) with the incisor bar set at −3.5 mm for rats or −4.0 mm for guinea pigs. […]
(§2) A fluorescence microscope (Zeiss) equipped with a grating monchromator and a spectrophotometer was used to quantify the amount of Evans Blue dye in each sample. An excitation wavelength of approximately 535 nm was utilized and the emission intensity at 600 nm was determined. […] This facilitated the computer-controlled movement of the stage with fluorescence measurements at 25 points ([…]) on each dural sample. The mean and standard deviation of the measurements were determined by the computer.
(§3) The extravasation induced by the electrical stimulation of the trigeminal ganglion was an ipsilateral effect (i.e. occurs only on the side of the dura in which the trigeminal ganglion was stimulated). […] The ratio of the amount of extravasation in the dura from the stimulated side, over the amount of extravasation in the unstimulated side, was calculated. […]

[2] = tested on: dural protein extravasation; assay: Animal model of dural protein extravasation (rat); format: in vivo; conditions: for Inhibition of Dural Protein Extravasation ID50: rat, i.v.
Procedure: as §1
Harlan Sprague-Dawley rats (225–325 g) or guinea pigs from Charles River Laboratories (225–325 g) were anesthetized with sodium pentobarbital intraperitoneally (65 mg/kg or 45 mg/kg respectively) and placed in a stereotaxic frame (David Kopf Instruments) with the incisor bar set at −3.5 mm for rats or −4.0 mm for guinea pigs. Following a midline sagital scalp incision, two pairs of bilateral holes were drilled through the skull (6 mm posterially, 2.0 and 4.0 mm laterally in rats; 4 mm posteriorly and 3.2 and 5.2 mm laterally in guinea pigs, all coordinates referenced to bregma). Pairs of stainless steel stimulating electrodes, insulated except at the tips (Rhodes Medical Systems, Inc.), were lowered through the holes in both hemispheres to a depth of 9 mm (rats) or 10.5 mm (guinea pigs) from dura.
The femoral vein was exposed and a dose of the test compound was injected intravenously (i.v.) at a dosing volume of 1 ml/Kg or, in the alternative, test compound was administered orally (p.o) via gavage at a volume of 2.0 ml/Kg. Approximately 7 minutes post i.v. injection, a 50 mg/Kg dose of Evans Blue, a fluorescent dye, was also injected intravenously. The Evans Blue complexed with proteins in the blood and functioned as a marker for protein extravasation. Exactly 10 minutes post-injection of the test compound, the left trigeminal ganglion was stimulated for 3 minutes at a current intensity of 1.0 mA (5 Hz, 4 msec duration) with a Model 273 potentiostat/galvanostat (EG&G Princeton Applied Research).
Fifteen minutes following stimulation, the animals were killed and exsanguinated with 20 mL of saline. The top of the skull was removed to facilitate the collection of the dural membranes. […]
as §2, §3

| Compound | Inhibition of Dural Protein Extravasation ID50 [1] | Inhibition of Dural Protein Extravasation ID50 [2] | Inhibition of Dural Protein Extravasation ID100 ([2]; p.o., species not given) [µg/kg] |
| --- | --- | --- | --- |
| O=C(O)c1ccc(C[C@H]2CC[C@H]3CN[C@H](C(=O)O)C[C@H]3C2)cc1 [Compound I, 3S,4aR,6S,8aR-6-(((4-carboxy)phenyl)methyl)-1,2,3,4,4a,5,6,7,8,8a-decahydroisoquinoline-3-carboxylic acid] | 4.0 (Gpig) ng/Kg | 6.5 (rat), ng/Kg |  |
| O=C(O)[C@@H]1C[C@H]2C[C@@H](COCc3nnn[nH]3)CC[C@H]2CN1 [Compound II, 3S,4aR,6S,8aR-6-((((1H-Tetrazole-5-yl)methyl)oxy)methyl)-1,2,3,4,4a,5,6,7,8,8a-decahydroisoquinoline-3-carboxylic acid] |  | 15 (rat) ng/Kg |  |
| O=C(O)[C@@H]1C[C@H]2C[C@@H](CCSc3nnn[nH]3)CC[C@H]2CN1 [Compound III] |  | .0053 (rat) ng/Kg |  |
| CCOC(=O)[C@@H]1C[C@H]2C[C@@H](CN3CC(F)(F)C[C@H]3C(=O)OCC)CC[C@H]2CN1 [Compound IV(b), 3S,4aR,6S,8aR Ethyl 6-(((2S)-2-(Ethoxycarbonyl)-4,4-difluoropyrrolidinyl)methyl)-1,2,3,4,4a,5,6,7,8,8a-decahydroisoquinoline-3-carboxylate] |  |  | 1e-05 |
